Test results: US10766942B2, “Fragments of syndecan-2 having anti-angiogenic activity” (Queen Mary University of London, priority 2014, dated 2020)

Legend:
CD148 = target: T1, CD148 (Mus musculus, UniProt Q64455); experiment: CD148 pull down from EC lysates with GST fusion protein coated beads, Western blot; format: binding; details: protein-coated beads as bait
T1 construct: endogenous in cells; bEND3.1 cells
T1 sequence (Q64455 29-1238): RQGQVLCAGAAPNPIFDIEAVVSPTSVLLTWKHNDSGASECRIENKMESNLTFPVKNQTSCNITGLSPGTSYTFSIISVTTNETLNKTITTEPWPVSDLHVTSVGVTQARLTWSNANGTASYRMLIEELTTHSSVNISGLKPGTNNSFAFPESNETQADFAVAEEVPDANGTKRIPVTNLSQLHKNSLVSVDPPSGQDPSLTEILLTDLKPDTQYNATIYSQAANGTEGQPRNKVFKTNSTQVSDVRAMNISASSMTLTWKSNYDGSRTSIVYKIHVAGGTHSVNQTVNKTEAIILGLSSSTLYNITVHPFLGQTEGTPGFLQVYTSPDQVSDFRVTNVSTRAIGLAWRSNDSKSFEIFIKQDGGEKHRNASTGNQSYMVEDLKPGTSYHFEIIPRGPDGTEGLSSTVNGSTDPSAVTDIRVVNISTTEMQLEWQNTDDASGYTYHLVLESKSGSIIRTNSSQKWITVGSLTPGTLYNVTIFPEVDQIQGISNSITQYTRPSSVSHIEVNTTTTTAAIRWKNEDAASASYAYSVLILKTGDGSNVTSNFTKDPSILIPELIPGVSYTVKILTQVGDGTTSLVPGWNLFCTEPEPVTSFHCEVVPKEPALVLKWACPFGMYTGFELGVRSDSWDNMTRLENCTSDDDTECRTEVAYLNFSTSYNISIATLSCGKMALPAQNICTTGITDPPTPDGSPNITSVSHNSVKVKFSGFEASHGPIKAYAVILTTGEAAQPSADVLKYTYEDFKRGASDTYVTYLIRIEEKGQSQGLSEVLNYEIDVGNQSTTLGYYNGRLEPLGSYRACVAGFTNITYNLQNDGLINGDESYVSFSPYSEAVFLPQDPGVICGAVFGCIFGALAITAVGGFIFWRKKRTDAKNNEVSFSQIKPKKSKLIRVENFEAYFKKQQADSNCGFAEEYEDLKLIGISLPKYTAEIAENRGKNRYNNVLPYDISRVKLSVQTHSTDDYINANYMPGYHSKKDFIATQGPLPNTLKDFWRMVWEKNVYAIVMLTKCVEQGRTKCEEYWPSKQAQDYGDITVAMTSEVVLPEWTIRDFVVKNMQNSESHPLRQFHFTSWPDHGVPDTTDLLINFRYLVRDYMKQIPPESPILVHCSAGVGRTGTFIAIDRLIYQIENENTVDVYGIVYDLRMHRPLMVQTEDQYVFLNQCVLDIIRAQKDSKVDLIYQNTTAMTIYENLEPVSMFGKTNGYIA
Description: (A) bEND3.1, MLEC and sEND cells express CD148. Western blot of lysates from the EC lines indicated were probed with antibodies to CD148 or β-tubulin. (B) CD148 interacts with murine syndecan extracellular core protein (S2ED). Cell lysates from sEND cells were incubated with beads coated with GST(control), S2ED, S2EDΔP^124-F^141 or S2EDΔL^73-G^123. Precipitates were analysed by Western blot for the presence of CD148. CD148 was only pulled down by forms of S2ED which contain the C-terminal 18 amino acid adhesion regulatory domain. Blot is representative of 4 experiments.
In fibroblasts the protein tyrosine phosphatase receptor CD148 interacts directly with the adhesion regulatory domain of S2ED leading to β1 integrin mediated cell attachment and spreading (Whiteford et al., 2011 Mol Biol Cell, 22(19):3609-24). To determine whether CD148 is a mediator for EC responses to S2ED the expression of CD148 on ECs from brain, lung and skin was confirmed.
CD148 pulldown and Western blot: Confluent bEND3.1 cells were lysed in 1% tritonx100 in TBS containing HALT protease and phosphatase inhibitors (Pierce). GST and S2ED were bound to glutathione-sepharose beads (GE Healthcare) and were added to cell lysates and incubated for 1 hour. Beads were isolated by centrifugation and washed twice in TBS, prior to incubation in Laemmli buffer and analysis by Western blot using standard procedures.

brain ECs = experiment: Scratch wound migration assay on brain ECs with murine syndecan-2 GST fusion proteins; format: cell-based; details: 0.5 μM fusion protein, vs GST alone
Description: Scratch wound migration assays were performed in the presence of 0.5 μM of the fusion proteins indicated on brain ECs. Cell migration is measured by time lapse microscopy using an Olympus IX81 microscope with a controlled environment chamber set at 37° C., 10% CO2. Images were captured every 30 minutes using a Hamamatsu Orca ER digital camera and processed using Cell^M software (Olympus). (A) Phase contrast images 9 hours after the scratch was made. (B) EC migration speed is reduced in the presence of S2ED proteins containing the 18aa regulatory domain. Cell speed data represents mean measurements from at least 25 individual cells at the leading edge per treatment.
Migration assays were also performed on brain ECs in the presence of murine syndecan-2 GST fusion proteins—either S2ED or the truncated forms of this protein (S2EDΔP^124-F^141 and S2EDΔL^73-G^123).
Scratch wound migration assays: Scratch wound migration assays were performed on confluent monolayers of ECs. Wounds were made using a pipette tip, and fusion proteins were added to the medium and images were captured every 30 minutes for 12 hours by time lapse microscopy using an Olympus IX81 microscope. Percentage wound closure was calculated and individual cells tracked using Image J.

[1] = system: Rat aortas (aortic ring sections); experiment: Rat aortic ring angiogenic sprouting assay in collagen I matrices; format: cell-based; details: 0.5 μM in collagen I matrix; rat aortic rings; vs untreated and GST controls
Description: (A) Diagram of the murine syndecan-2 mutant proteins used in this study. (B) Rat aortas were seeded in collagen I matrices as above containing 0.5 μM of GST(control), S2ED or the mutant forms of S2ED. Sprouts from 8 rings per condition were counted and the mean calculated. Error bars represent the SEM and significance was calculated using a one way ANOVA with Bonferroni multiple comparison (p***<0.005, p****<0.0001).
In another assay with murine peptides, full length S2ED, S2EDΔP^124-F^141 (lacking adhesion regulatory domain) or S2EDΔL^73-G^123 (truncated form containing only the adhesion regulatory residues) were incorporated into collagen matrices in which aortic ring sections were embedded (FIGS. 4A and B).
Aortic ring assay: Thoracic aortas dissected from cervically dislocated 180-200 g male wistar rats (Harlan Laboratories) or 6 week old C57BL/6 mice (Charles River) were sliced into 0.5 mm sections and incubated overnight in serum free OptiMEM (Invitrogen) at 37° C. […] Angiogenic sprouts from rat and mouse aortas were counted after 4 days and 8 days respectively (Method based on that of Nicosia and Ottinetti (Laboratory Investigation 63:115-122, 1990) and modified in De Rossi et al. (Journal of Genetic Syndromes & Gene Therapy 4, 2013).

Substance | Pull-down of CD148 from EC lysates (CD148) | EC cell migration (wound closure) (brain ECs) | Angiogenic sprout formation [1]
S2ED: murine syndecan-2 extracellular core protein, full length, GST fusion protein (SEQ ID NO 3) | successfully pull-down CD148 | inhibited EC cell migration | severely compromised
S2EDΔL^73-G^123: truncated murine syndecan-2 GST fusion protein containing only the adhesion regulatory residues (SEQ ID NO 5) | successfully pull-down CD148 | inhibited EC cell migration | severely compromised
S2EDΔP^124-F^141: murine syndecan-2 GST fusion mutant lacking adhesion regulatory domain (SEQ ID NO 4) | No CD148 was evident | did not affect cell migration | –
